Reference: PubChem BioAssay AID2060896 (Molecular Pharmacology Branch, DTP, NCI, 2025)
pIC50: −log10 of the molar value. Blank lines part the entries; values can stand above or below the compound they belong to.

System: 941728-121-R-J1-PDC complex spheroid viability
Test: Anticancer human tumor 941728-121-R-J1-PDC patient-derived lung adenocarcinoma cell line growth inhibition [RAS]
Conditions: for pIC50: curve of first compound; for viability, T/C: stronger effect = lower value
In short: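 Agents were tested in combination matrices in half-log decrements from a top concentration at or near clinical Cmax (10 microM if undetermined). Targets were multi-cell spheroids of tumour lines plus HUVEC and MSC stromal cells.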

[1] = second compound 0.000949 µM, first compound 0.00316 µM
[2] = second compound 0.000949 µM, first compound 0.01 µM
[3] = second compound 0.000949 µM, first compound 0.0316 µM
[4] = second compound 0.000949 µM, first compound 0.1 µM
[5] = second compound 0.003 µM, first compound 0.00316 µM
[6] = second compound 0.003 µM, first compound 0.01 µM
[7] = second compound 0.003 µM, first compound 0.0316 µM
[8] = second compound 0.003 µM, first compound 0.1 µM
[9] = second compound 0.00949 µM, first compound 0.00316 µM
[10] = second compound 0.00949 µM, first compound 0.01 µM
[11] = second compound 0.00949 µM, first compound 0.0316 µM
[12] = second compound 0.00949 µM, first compound 0.1 µM
[13] = second compound 0.03 µM, first compound 0.00316 µM
[14] = second compound 0.03 µM, first compound 0.01 µM
[15] = second compound 0.03 µM, first compound 0.0316 µM
[16] = second compound 0.03 µM, first compound 0.1 µM
[17] = second compound 0.0949 µM, first compound 0.00316 µM
[18] = second compound 0.0949 µM, first compound 0.01 µM
[19] = second compound 0.0949 µM, first compound 0.0316 µM
[20] = second compound 0.0949 µM, first compound 0.1 µM
[21] = second compound 0.3 µM, first compound 0.00316 µM
[22] = second compound 0.3 µM, first compound 0.01 µM
[23] = second compound 0.3 µM, first compound 0.0316 µM
[24] = second compound 0.3 µM, first compound 0.1 µM
[25] = second compound 0.000949 µM, first compound 0.316 µM
[26] = second compound 0.000949 µM, first compound 1 µM
[27] = second compound 0.000949 µM, first compound 3.16 µM
[28] = second compound 0.000949 µM, first compound 10 µM
[29] = second compound 0.003 µM, first compound 0.316 µM
[30] = second compound 0.003 µM, first compound 1 µM
[31] = second compound 0.003 µM, first compound 3.16 µM
[32] = second compound 0.003 µM, first compound 10 µM
[33] = second compound 0.00949 µM, first compound 0.316 µM
[34] = second compound 0.00949 µM, first compound 1 µM
[35] = second compound 0.00949 µM, first compound 3.16 µM
[36] = second compound 0.00949 µM, first compound 10 µM
[37] = second compound 0.03 µM, first compound 0.316 µM
[38] = second compound 0.03 µM, first compound 1 µM
[39] = second compound 0.03 µM, first compound 3.16 µM
[40] = second compound 0.03 µM, first compound 10 µM
[41] = second compound 0.0949 µM, first compound 0.316 µM
[42] = second compound 0.0949 µM, first compound 1 µM
[43] = second compound 0.0949 µM, first compound 3.16 µM
[44] = second compound 0.0949 µM, first compound 10 µM
[45] = second compound 0.3 µM, first compound 0.316 µM
[46] = second compound 0.3 µM, first compound 1 µM
[47] = second compound 0.3 µM, first compound 3.16 µM
[48] = second compound 0.3 µM, first compound 10 µM
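Also: spheroids exposed to compounds for 7 days before readout.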
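For viability, T/C in this document: 100% = DMSO vehicle control viability.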

pIC50 (second compound 0.000949 µM): > 9.50
pIC50 (second compound 0.003 µM): > 9.50
pIC50 (second compound 0.00949 µM): > 9.50
pIC50 (second compound 0.03 µM): > 9.50
pIC50 (second compound 0.0949 µM): > 9.50
pIC50 (second compound 0.3 µM): > 9.50
SMILES: CC(C)n1nc(-c2ccc3oc(N)nc3c2)c2c(N)ncnc21 + CCn1c(-c2cccnc2C(C)OC)c2c3cc(ccc31)N1CCOC(CC(NC(=O)C(C(C)C)N(C)C(=O)C3(F)CCN(C(=O)C#CC(C)(C)N(C)C)CC3)C(=O)N3CCCC(N3)C(=O)OCC(C)(C)C2)C1
viability, T/C (second compound 0.000949 µM, first compound 0.000316 µM): 21.4%
viability, T/C (second compound 0.000949 µM, first compound 0.001 µM): 19.7%
viability, T/C [1]: 12.9%
viability, T/C [2]: 15.4%
viability, T/C [3]: 11.6%
viability, T/C [4]: 6.3%
viability, T/C (second compound 0.003 µM, first compound 0.000316 µM): 23.6%
viability, T/C (second compound 0.003 µM, first compound 0.001 µM): 19.4%
viability, T/C [5]: 14.5%
viability, T/C [6]: 15.6%
viability, T/C [7]: 9.94%
viability, T/C [8]: 7.46%
viability, T/C (second compound 0.00949 µM, first compound 0.000316 µM): 21%
viability, T/C (second compound 0.00949 µM, first compound 0.001 µM): 17.3%
viability, T/C [9]: 19.8%
viability, T/C [10]: 15.3%
viability, T/C [11]: 9.22%
viability, T/C [12]: 6.25%
viability, T/C (second compound 0.03 µM, first compound 0.000316 µM): 20.8%
viability, T/C (second compound 0.03 µM, first compound 0.001 µM): 19.7%
viability, T/C [13]: 16.8%
viability, T/C [14]: 14.8%
viability, T/C [15]: 8.83%
viability, T/C [16]: 8.55%
viability, T/C (second compound 0.0949 µM, first compound 0.000316 µM): 18.8%
viability, T/C (second compound 0.0949 µM, first compound 0.001 µM): 20.8%
viability, T/C [17]: 17.4%
viability, T/C [18]: 15.2%
viability, T/C [19]: 9.76%
viability, T/C [20]: 10.1%
viability, T/C (second compound 0.3 µM, first compound 0.000316 µM): 21.7%
viability, T/C (second compound 0.3 µM, first compound 0.001 µM): 18.9%
viability, T/C [21]: 18.9%
viability, T/C [22]: 15.9%
viability, T/C [23]: 10.5%
viability, T/C [24]: 10.8%

pIC50 (second compound 0.000949 µM): > 7.50
pIC50 (second compound 0.003 µM): > 7.50
pIC50 (second compound 0.00949 µM): > 7.50
pIC50 (second compound 0.03 µM): > 7.50
pIC50 (second compound 0.0949 µM): > 7.50
pIC50 (second compound 0.3 µM): > 7.50
SMILES: CC1(O)CCCC1n1c(=O)c(C(F)F)cc2cnc(NC3CCN(S(C)(=O)=O)CC3)nc21 (stereo not drawn) + CCn1c(-c2cccnc2C(C)OC)c2c3cc(ccc31)N1CCOC(CC(NC(=O)C(C(C)C)N(C)C(=O)C3(F)CCN(C(=O)C#CC(C)(C)N(C)C)CC3)C(=O)N3CCCC(N3)C(=O)OCC(C)(C)C2)C1
viability, T/C [3]: 22.3%
viability, T/C [4]: 23.9%
viability, T/C [25]: 24.1%
viability, T/C [26]: 24.3%
viability, T/C [27]: 26%
viability, T/C [28]: 29.7%
viability, T/C [7]: 24%
viability, T/C [8]: 20.8%
viability, T/C [29]: 24.2%
viability, T/C [30]: 25.1%
viability, T/C [31]: 24.6%
viability, T/C [32]: 30.1%
viability, T/C [11]: 21.4%
viability, T/C [12]: 26.1%
viability, T/C [33]: 21.9%
viability, T/C [34]: 24.4%
viability, T/C [35]: 22.6%
viability, T/C [36]: 30.1%
viability, T/C [15]: 23.1%
viability, T/C [16]: 23%
viability, T/C [37]: 23.6%
viability, T/C [38]: 27.4%
viability, T/C [39]: 20.1%
viability, T/C [40]: 31%
viability, T/C [19]: 21.5%
viability, T/C [20]: 22.3%
viability, T/C [41]: 26.5%
viability, T/C [42]: 27.9%
viability, T/C [43]: 17.9%
viability, T/C [44]: 28.8%
viability, T/C [23]: 22.5%
viability, T/C [24]: 23.4%
viability, T/C [45]: 23%
viability, T/C [46]: 26.1%
viability, T/C [47]: 20.8%
viability, T/C [48]: 25.9%

pIC50 (second compound 0.000949 µM): > 8.50
pIC50 (second compound 0.003 µM): > 8.50
pIC50 (second compound 0.00949 µM): > 8.50
pIC50 (second compound 0.03 µM): > 8.50
pIC50 (second compound 0.0949 µM): > 8.50
pIC50 (second compound 0.3 µM): > 8.50
SMILES: CCN1CCN(Cc2ccc(Nc3ncc(F)c(-c4cc(F)c5nc(C)n(C(C)C)c5c4)n3)nc2)CC1 + CCn1c(-c2cccnc2C(C)OC)c2c3cc(ccc31)N1CCOC(CC(NC(=O)C(C(C)C)N(C)C(=O)C3(F)CCN(C(=O)C#CC(C)(C)N(C)C)CC3)C(=O)N3CCCC(N3)C(=O)OCC(C)(C)C2)C1
viability, T/C [1]: 22.2%
viability, T/C [2]: 23.4%
viability, T/C [3]: 16.8%
viability, T/C [4]: 16.1%
viability, T/C [25]: 16.6%
viability, T/C [26]: 12.2%
viability, T/C [5]: 22.9%
viability, T/C [6]: 19.3%
viability, T/C [7]: 17.4%
viability, T/C [8]: 19.3%
viability, T/C [29]: 17.3%
viability, T/C [30]: 11.3%
viability, T/C [9]: 21.3%
viability, T/C [10]: 21.9%
viability, T/C [11]: 19.8%
viability, T/C [12]: 17.7%
viability, T/C [33]: 15.8%
viability, T/C [34]: 12.9%
viability, T/C [13]: 24.5%
viability, T/C [14]: 21.8%
viability, T/C [15]: 18%
viability, T/C [16]: 19.2%
viability, T/C [37]: 13.6%
viability, T/C [38]: 17.5%
viability, T/C [17]: 21.9%
viability, T/C [18]: 23.3%
viability, T/C [19]: 19.8%
viability, T/C [20]: 16.3%
viability, T/C [41]: 11.7%
viability, T/C [42]: 15.8%
viability, T/C [21]: 21.2%
viability, T/C [22]: 21.9%
viability, T/C [23]: 21.3%
viability, T/C [24]: 16.3%
viability, T/C [45]: 16%
viability, T/C [46]: 17.9%

pIC50 (second compound 0.000949 µM): > 7.50
pIC50 (second compound 0.003 µM): > 7.50
pIC50 (second compound 0.00949 µM): > 7.50
pIC50 (second compound 0.03 µM): > 7.50
pIC50 (second compound 0.0949 µM): > 7.50
pIC50 (second compound 0.3 µM): > 7.50
SMILES: C[C@@H](NC(=O)c1ncnc(N)c1Cl)c1ncc(C(=O)Nc2cc(C(F)(F)F)c(Cl)cn2)s1 + CCn1c(-c2cccnc2C(C)OC)c2c3cc(ccc31)N1CCOC(CC(NC(=O)C(C(C)C)N(C)C(=O)C3(F)CCN(C(=O)C#CC(C)(C)N(C)C)CC3)C(=O)N3CCCC(N3)C(=O)OCC(C)(C)C2)C1
viability, T/C [3]: 25.9%
viability, T/C [4]: 26.5%
viability, T/C [25]: 20.4%
viability, T/C [26]: 26.4%
viability, T/C [27]: 24.6%
viability, T/C [28]: 16.7%
viability, T/C [7]: 21.6%
viability, T/C [8]: 20.3%
viability, T/C [29]: 19.4%
viability, T/C [30]: 23.7%
viability, T/C [31]: 23.5%
viability, T/C [32]: 17.9%
viability, T/C [11]: 22.9%
viability, T/C [12]: 19.8%
viability, T/C [33]: 24.6%
viability, T/C [34]: 22.4%
viability, T/C [35]: 21%
viability, T/C [36]: 19.9%
viability, T/C [15]: 23.9%
viability, T/C [16]: 20.6%
viability, T/C [37]: 26.3%
viability, T/C [38]: 23.1%
viability, T/C [39]: 17.4%
viability, T/C [40]: 21.6%
viability, T/C [19]: 21.7%
viability, T/C [20]: 24%
viability, T/C [41]: 22.6%
viability, T/C [42]: 24.4%
viability, T/C [43]: 21.2%
viability, T/C [44]: 22.2%
viability, T/C [23]: 22.6%
viability, T/C [24]: 26%
viability, T/C [45]: 23.2%
viability, T/C [46]: 25.1%
viability, T/C [47]: 21.9%
viability, T/C [48]: 20.1%
